Consider 26 compounds from patent US10030016B2 (Sunesis Pharmaceuticals, Inc., priority 2009, dated 2018).

The target of assay [1] is PDK1 (Homo sapiens (Human), UniProt O15530). The assay can be described thus: PDK1 kinase assay (coupled PDK1/AKT/FAM-crosstide assay, IMAP fluorescence polarization). It is filed as biochemical. The method, boiled down: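 GST-tagged human PDK1 (aa 51-359, 0.75 nM) from insect cells activated unphosphorylated GST-AKT2 (aa 140-467–PIFtide fusion, 10 nM), which phosphorylated 100 nM FAM-crosstide; 40 μM ATP, pH 7.2 Tris/MgCl2, 30 min at 25° C. IMAP fluorescence polarization read-out; ΔmP versus compound concentration fitted with a 4-parameter curve.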

The test system of assay [2] is phospho-akt (Thr308) in PC-3 cells. The assay is described as follows: Inhibition of phospho-akt (Thr308) in PC-3 cells, MSD phospho-akt 308 ELISA kit. It is filed as cell-based. Conditions: Homo sapiens, 2 hours, no serum, read-out: EC50. The method, boiled down:
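Read-out is MSD electrochemiluminescence of Akt phosphorylated at Thr308 in lysates of PC-3 cells treated 2 h with compound in serum-free medium. Wortmannin at 5 μM defined the low control and DMSO the high control.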

Where [3] appears, read: inhibition of P308 Akt in PC-3 cells using MSD.
Setting [4] is: inhibition of phospo-PDK1 in vitro.
Where [5] appears, read: inhibition of P308 Akt in PC-3 cells, MSD.
Where [6] appears, read: PC-3, 2 h, inhibition of P308 Akt in PC-3 cells using MSD.

Where a name gives a salt, the structure may show the parent alone. Read-outs that look alike come from different tables or passages of the source. Some results are limits rather than exact numbers.

Sequence of PDK1 (O15530 51-359): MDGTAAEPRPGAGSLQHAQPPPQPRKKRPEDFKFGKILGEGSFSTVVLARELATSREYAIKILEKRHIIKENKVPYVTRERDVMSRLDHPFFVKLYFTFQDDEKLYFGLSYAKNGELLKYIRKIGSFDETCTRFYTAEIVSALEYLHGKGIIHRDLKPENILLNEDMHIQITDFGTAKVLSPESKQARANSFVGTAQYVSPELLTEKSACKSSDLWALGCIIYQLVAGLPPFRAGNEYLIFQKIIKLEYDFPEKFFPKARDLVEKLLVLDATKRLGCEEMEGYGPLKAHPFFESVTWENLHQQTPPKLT

With `N#Cc1cnc(NCc2ccc(-c3ccc(N)nc3)cc2)c(C(=O)NCc2cncc(F)c2)c1` [Example 310, 2-(4-(6-aminopyridin-3-yl)benzylamino)-5-cyano-N-((5-fluoropyridin-3-yl)methyl)nicotinamide], in assay [1] (inhibition of PDK1 in vitro), the concentration for half-maximal inhibition (IC50) was < 100 nM. For the same compound, in assay [2] (setting [3]), the EC50 was < 1000 nM.
As to `C[C@H](NC(=O)c1nccnc1NCc1ccc(-c2ccc(N)nc2)cc1)c1ccc(F)cc1` [Example 371, (S)-3-(4-(6-aminopyridin-3-yl)benzylamino)-N-(1-(4-fluorophenyl)ethyl)pyrazine-2-carboxamide], the IC50 in assay [1] (inhibition of PDK1 in vitro) was < 100 nM. For the same compound, the EC50 in assay [2] (setting [3]) was > 10000 nM.
`Nc1ncnc2ccc(-c3ccc(CNc4ncc(NC(=O)C5CCCC5)cc4C(=O)NCc4ccc(F)c(F)c4)s3)cc12` [Example 8.5.5, 2-({[5-(4-aminoquinazolin-6-yl)thiophen-2-yl]methyl}amino)-5-[(cyclopentylcarbonyl)amino]-N-(3,4-difluorobenzyl) pyridine-3-carboxamide]: the IC50 in assay [1] (setting [4]) fell in the range of 100 to 1000 nM. Further, the EC50 in assay [2] (PC-3, 2 h, inhibition of P308 Akt in PC-3 cells, MSD) lay in the range of 1000 to 10000 nM.
Regarding `C[C@H](NC(=O)c1cccnc1NCc1ccc(-c2ccc3ncc4ncn(C)c4c3c2)s1)c1ccc(F)c(F)c1` [Example 2.25, (S)-N-(1-(3,4-difluorophenyl)ethyl)-2-(((5-(1-methyl-1H-imidazo[4,5-c]quinolin-8-yl)thiophen-2-yl)methyl)amino)nicotinamide], in assay [1] (setting [4]), the IC50 is < 100 nM. Further, the EC50 in assay [2] (setting [5]) was < 1000 nM.
Take `C[C@H](NC(=O)c1cc(C#N)cnc1NC/C=C/c1ccc2c(c1)NC(=O)C2)c1ccc(F)cc1` [Example 15.3, (S,E)-5-cyano-N-(1-(4-fluorophenyl)ethyl)-2-(3-(2-oxoindolin-6-yl)allylamino)nicotinamide]: the IC50 in assay [1] (setting [4]) was > 5000 nM. For the same compound, the EC50 in assay [2] (setting [5]) is > 10000 nM.
For `Nc1n[nH]c2ncc(-c3ccc(CNc4ncc(C(F)(F)F)cc4C(=O)Nc4ccc(F)cc4)cc3)nc12` [Example 184], the IC50 in assay [1] (inhibition of PDK1 in vitro) is < 100 nM. In addition, the EC50 in assay [2] (setting [3]) was < 1000 nM.
In turn, `C[C@H](NC(=O)c1cnccc1NCc1ccc(-c2ccc3ncnc(N)c3c2)s1)c1ccc(F)c(F)c1` [Example 3.86] displayed an IC50 in assay [1] (setting [4]) of 1000 to 5000 nM. Moreover, the EC50 in assay [2] (setting [5]) is > 10000 nM.
In assay [1] (inhibition of PDK1 in vitro), `C[C@H](NC(=O)c1cc(C#N)cnc1NCc1ccc(-c2ccc(C(N)=O)nc2)cc1)c1ccc(F)cc1` [Example 114, (S)-5-(4-((5-cyano-3-(1-(4-fluorophenyl)ethylcarbamoyl)pyridin-2-ylamino)methyl)phenyl)picolinamide] returned an IC50 of 100 to 1000 nM. For the same compound, in assay [2] (setting [6]), the EC50 is > 10000 nM.
For the compound `Nc1n[nH]c2ncc(-c3ccc(CNc4nccc5ncn(Cc6ccc(F)c(F)c6)c(=O)c45)cc3)cc12` [Example 40, 5-(4-(3-amino-1H-pyrazolo[3,4-b]pyridin-5-yl)benzylamino)-3-(3,4-difluorobenzyl)pyrido[4,3-d]pyrimidin-4(3H)-one], the IC50 in assay [1] (setting [4]) is < 100 nM. The EC50 in assay [2] (setting [5]) was < 1000 nM.
For `O=C(NCc1ccc(C(F)(F)F)cc1)c1cccnc1NCc1ccc(-c2c[nH]c3ncccc23)s1` [Example 1.18], the IC50 in assay [1] (setting [4]) lay in the range of 1000 to 5000 nM. Also, in assay [2] (setting [5]), the EC50 is > 10000 nM.
Turning to `C[C@H](NC(=O)c1cc(C#N)cnc1NCc1ccc(-c2cnc(N)c(C(N)=O)n2)cc1)c1ccc(F)cc1` [Example 217, (S)-3-amino-6-(4-((5-cyano-3-(1-(4-fluorophenyl)ethylcarbamoyl)pyridin-2-ylamino)methyl)phenyl) pyrazine-2-carboxamide], in assay [1] (inhibition of PDK1 in vitro), the IC50 was < 100 nM. For the same compound, the EC50 in assay [2] (setting [3]) is < 1000 nM.
Take `C[C@H](NC(=O)c1cccnc1N[C@@H](COc1ccc2c(c1)[nH]c(=O)n2C)c1ccccc1)c1ccc(F)c(F)c1` [Example 16.13, N—((S)-1-(3,4-difluorophenyl)ethyl)-2-((R)-2-(1-methyl-2-oxo-2,3-dihydro-1H-benzo[d]imidazol-5-yloxy)-1-phenylethylamino)nicotinamide]: in assay [1] (setting [4]), the IC50 is < 100 nM. Further, the EC50 in assay [2] (setting [5]) lay within 1000 to 10000 nM.
For the compound `C[C@H](NC(=O)c1cc(C#N)cnc1NCc1ccc(-c2cnc(N)c(N3CCNCC3)n2)cc1)c1ccc(F)cc1` [Example 191, 2-[4-(3′-Amino-3,4,5,6-tetrahydro-2H-[1,2′]bipyrazinyl-6′-yl)-benzylamino]-5-cyano-N-[(S)-1-(4-fluoro-phenyl)-ethyl]-nicotinamide], in assay [1] (inhibition of PDK1 in vitro), the IC50 was < 100 nM. Besides, the EC50 in assay [2] (setting [3]) is < 1000 nM.
With `C[C@H](NC(=O)c1cc(C#N)cnc1N[C@H](C)c1ccc(-c2cnc3[nH]nc(N)c3c2)cc1)c1ccc(F)cc1` [Example 423, 2-{(R)-1-[4-(3-Amino-1H-pyrazolo[3,4-b]pyridin-5-yl)-phenyl]-ethylamino}-5-cyano-N-[(S)-1-(4-fluoro-phenyl)-ethyl]-nicotinamide], in assay [1] (inhibition of PDK1 in vitro), the IC50 is < 100 nM. Moreover, the EC50 in assay [2] (setting [3]) was < 1000 nM.
In assay [1] (inhibition of PDK1 in vitro), `C[C@H](NC(=O)c1cc(C#N)cnc1NCc1cnc(-c2cnc3[nH]ncc3c2)nc1)c1ccc(F)cc1` [Example 69, 5-Cyano-N-[(S)-1-(4-fluoro-phenyl)-ethyl]-2-{[2-(1H-pyrazolo[3,4-b]pyridin-5-yl)-pyrimidin-5-ylmethyl]-amino}-nicotinamide] displayed an IC50 of 100 to 1000 nM. The EC50 in assay [2] (setting [3]) is > 10000 nM.
For `Nc1ncnc2[nH]cc(-c3ccc(CNc4ncc(C(F)(F)F)cc4C(=O)Nc4ccc(F)cc4)cc3)c12` [Example 321, 2-(4-(4-amino-7H-pyrrolo [2,3-d]pyrimidin-5-yl)benzylamino)-N-(4-fluorophenyl)-5-(trifluoromethyl)nicotinamide] the same measures were < 100 nM and < 1000 nM.
`CC(C)C(=O)Nc1cnc(NCc2ccc(-c3ccc4ncnc(N)c4c3)s2)c(C(=O)NCc2ccc(F)c(F)c2)c1` [Example 8.5.3, 2-({[5-(4-aminoquinazolin-6-yl)thiophen-2-yl]methyl}amino)-N-(3,4-difluorobenzyl)-5-[(2-methylpropanoyl)amino] pyridine-3-carboxamide] returned an IC50 in assay [1] (setting [4]) of 100 to 1000 nM. In addition, the EC50 in assay [2] (setting [5]) fell in the range of 1000 to 10000 nM.
As for `O=C(NCc1ccc(F)c(F)c1)c1cccnc1Nc1cccc(-c2cccn3c(=O)[nH]nc23)c1` [Example 17.3], the IC50 in assay [1] (setting [4]) was in the range of 100 to 1000 nM. Moreover, in assay [2] (setting [5]), the EC50 is > 10000 nM.
`C[C@H](NC(=O)c1c(NCc2ccc(-c3ccc4ncnc(N)c4c3)s2)ncc(Br)c1N)c1ccc(F)c(F)c1` [Example 3.87] yielded an IC50 in assay [1] (setting [4]) of 1000 to 5000 nM. Moreover, the EC50 in assay [2] (setting [5]) was > 10000 nM.
Turning to `C[C@H](NC(=O)c1nc(C#N)cnc1NCc1ccc(-c2ccc3c(N)ncnn23)cc1)c1ccc(F)c(F)c1` [Example 181, 3-[4-(4-Amino-pyrrolo [2,1-f][1,2,4]triazin-7-yl)-benzylamino]-6-cyano-pyrazine-2-carboxylic acid [(S)-1-(3,4-difluoro-phenyl)-ethyl]-amide], in assay [1] (inhibition of PDK1 in vitro), the IC50 is < 100 nM. Moreover, the EC50 in assay [2] (setting [3]) is < 1000 nM.
`C[C@H](NC(=O)c1cc(C(F)(F)F)cnc1NCc1ccc(-c2ccc3ncnc(N)c3c2)s1)c1ccc(F)cc1` [Example 8.12.5, 2-({[5-(4-aminoquinazolin-6-yl)thiophen-2-yl]methyl}amino)-N-[(1S)-1-(4-fluorophenyl)ethyl]-5-(trifluoromethyl)pyridine-3-carboxamide]: the half-maximal inhibitory concentration (IC50) in assay [1] (setting [4]) was < 100 nM. Further, the EC50 in assay [2] (setting [5]) is 1000 to 10000 nM.
`Nc1ncnc2ccc(-c3ccc(CNc4ncccc4C(=O)NCc4ccc(F)c(F)c4)s3)cc12` [Example 4.4, 2-(((5-(4-aminoquinazolin-6-yl)thiophen-2-yl)methyl)amino)-N-(3,4-difluorobenzyl)nicotinamide]: the IC50 in assay [1] (setting [4]) is < 100 nM. For the same compound, in assay [2] (setting [5]), the EC50 was < 1000 nM.
In turn, `Cc1cccc(Cl)c1NC(=O)c1cc(C(F)(F)F)cnc1NCc1ccc(-c2cnc3[nH]nc(N)c3c2)cc1` [Example 438, 2-(4-(3-amino-1H-pyrazolo[3,4-b]pyridin-5-yl)benzylamino)-N-(2-chloro-6-methyl-phenyl)-5-(trifluoro-methyl)nicotinamide] had an IC50 in assay [1] (inhibition of PDK1 in vitro) of 1000 to 5000 nM. In addition, the EC50 in assay [2] (setting [6]) is > 10000 nM.
On to `C[C@H](NC(=O)c1cc(C#N)cnc1NCc1ccc(-c2cnc(N)c(C(=O)NCCN3CCOCC3)c2)cc1)c1ccc(F)cc1` [Example 202, (S)-2-amino-5-(4-((5-cyano-3-(1-(4-fluorophenyl)ethylcarbamoyl)pyridin-2-ylamino)methyl)phenyl)-N-(2-morpholinoethyl) nicotinamide], for which the IC50 in assay [1] (inhibition of PDK1 in vitro) was < 100 nM. The EC50 in assay [2] (setting [3]) is 1000 to 10000 nM.
Turning to `Nc1ncnc2ccc(-c3ccc(CNc4ncccc4C(=O)NCc4cc(F)cc(F)c4)s3)cc12` [Example 3.39, 2-({[5-(4-aminoquinazolin-6-yl)thiophen-2-yl]methyl}amino)-N-(3,5-difluorobenzyl) pyridine-3-carboxamide (TFA salt)], the IC50 in assay [1] (setting [4]) was < 100 nM. The EC50 in assay [2] (setting [5]) was < 1000 nM.
Taken in the same sequence, the figures for `C[C@H](NC(=O)c1nccnc1NC/C=C/c1ccc2c(c1)NC(=O)/C2=C\c1cnc[nH]1)c1ccc(F)cc1` [Example 15.20, 3-((E)-3-((Z)-3-((1H-imidazol-5-yl)methylene)-2-oxoindolin-6-yl)allylamino)-N-((S)-1-(4-fluorophenyl)ethyl) pyrazine-2-carboxamide] were < 100 nM and < 1000 nM.
